Series [1] concerns VEGF-A. The series can be described thus: Choroid VEGF-A qPCR. The format is in vivo, Brown Norway rats. To be noted: 7 and 14 days. As for the experimental part: (§1) In brief, 500 μL of T-Per supplemented with PHOSSTOP® and proteinase inhibitor cocktail was added to tubes containing dissected choroid. A scoop of 1.6 mm steel homogenization beads was added to each sample and then placed in […]® LT (Qiagen) at an oscillation frequency of 50/s for 15 minutes. For qPCR, 200 μL of TRIZOL® was added to tubes containing choroid and a scoop of 1.6 mm steel homogenization beads was added. The samples were placed in […]® LT at an oscillation frequency of 50/s for 15 minutes.
(§2) 100 μL of chloroform was added to the Trizol suspension and the aqueous phase was separated with a centrifuge at 10K RPM at 4° C. for 15 minutes. 400 μL of 2-propanol was added to the aqueous solution and spun again to pellet the RNA. The RNA was washed with 70% ethanol solution, pelleted again, and re-suspended in DEPC (ultrapure treated to inactivated enzymes) water.
(§3) To convert RNA to complementary DNA, 2 μg of RNA was converted using a High-Capacity cDNA Reverse Transcription Kit (Applied Biosystems, Foster City, CA). Samples were analyzed using STEPONE PLUS® real-time PCR system (Applied Biosystems) with SYBR Green reagent (ThermoFisher Scientific). Relative expression was quantified with ΔΔCt calculations normalized to controls. Primers for GAPDH was obtained from Bio-Rad Laboratories (Hercules, CA). Primers were purchased from Integrated DNA Technologies (Coralville, IA). […]

Series [2] deals with TNFα. The series can be described thus: Choroid TNFα qPCR. It counts as in vivo, Brown Norway rats. The settings on record: 7 and 14 days. As for the experimental part:
as §1, §2, §3

The subject of series [3] is VEGF-A. The series can be described thus: VEGF-A expression by VEGF stimulated endothelial cells. It counts as cell-based, human. The settings on record: co-incubated with VEGF-A. As for the experimental part:
Cells were treated with D-ALG1001 and ALG-1001 for 24 h before activation with VEGF for 5 minutes. […] Cells were lysed with TRIZOL® and processed as previously described for qPCR analysis.
In addition to examining pathway activation, the effects of D-ALG and ALG-1001 were also studied on VEGF-A expression by endothelial cells.

Series [4] deals with TNFα. Description: TNFα expression in LPS stimulated RAW264.7 cells (qPCR). The settings on record: only at the highest dose. It counts as cell-based, murine. The method, then: (§4) RAW264.7 cells were seeded at a density of 1×10^5 cells per well in 12-well plates 48 h before treatment. Cells were incubated with D-ALG1001 and ALG-1001 for 24 h, the treatment media was aspirated then LPS at a concentration of 10,000 Endotoxin Units/mL was added to stimulate inflammatory response. Samples were collected 3 h after LPS stimulation for qPCR analysis.
as §2
(§5) To convert RNA to complementary DNA, 2 μg of RNA was converted using a High-Capacity cDNA Reverse Transcription Kit (Applied Biosystems, Foster City, CA). Samples were analyzed using STEPONE PLUS® real-time PCR system (Applied Biosystems) with SYBR Green reagent (ThermoFisher Scientific). Relative expression was quantified with ΔΔCt calculations normalized to controls. Primers for GAPDH was obtained from Bio-Rad Laboratories (Hercules, CA). Primers were purchased from Integrated DNA Technologies (Coralville, IA). Primers for TNFα were: […]
(In general: In qPCR the cycle at which signal appears reflects the starting amount.)

Another series has as its target proteinase K (Parengyodontium album, UniProt P06873). Description: in vitro. The settings on record: proteinase K (isolated protease).
The subject of series [5] is choroidal neovascularization (CNV). Description: Laser CNV model, CNV area. It counts as in vivo, Brown Norway rats. As for the experimental part: Animals were anesthetized through intraperitoneal injections of a ketamine/xylazine cocktail (ketamine 50 mg/kg and xylazine 10 mg/kg). Pupils are dilated with topical 2.5% Phenylephrine Hydrochloride solution followed by 0.5% Tetracaine Hydrochloride solution. To induce CNV formation, four equally spaced lesions will be created in the Bruch's membrane with a built-in laser system on the Micron III SLO. Laser power was set to […] with duration of 70 ms. Gonio ophthalmic solution was applied post-operatively to prevent eyes from drying and forming cataracts.
On the day of CNV induction (Day 0), D-ALG1001 and ALG1001 was administered intraperitoneally at a dose of 150 μg on a peptide basis. […]
After fixation, the posterior segment of the eye was dissected out and the retina separated from the choroid. […] Samples for CNV quantification were imaged with an Axiovert phase contrast microscope. […]
A Micron III SLO scope and laser attachment was used to induce CNV formation in mice. […] Whether dendrimer conjugation impeded the peptide from attenuating CNV was assessed by first injecting ALG-1001 and D-ALG intravitreally after CNV induction. The eyes were then collected on day 7 and CNV area quantified.
The protection and targeting of D-ALG allowed for less invasive administration routes. […] Choroidal flatmount of eyes at day 7 and 14 were imaged and the CNV area was calculated using ImageJ.

The next series relates to p44/42 ERK. Description: Choroid total ERK and phospho-p44/42 ERK ELISA. It counts as in vivo, Brown Norway rats. As for the experimental part:
as §1
To evaluate activation of FAK and ERK pathways, eyes were enucleated at set time points and the choroidal tissue dissected out. Tissues were submerged in a mixture of T-per, proteinase inhibitor, and PhosStop with stainless steel homogenization beads and homogenized to produce protein extracts. Total FAK, total ERK, p-FAK (Y397), and p-44/42 ERK ELISA kits were used to quantify the amount of total and phosphorylated proteins in FAK and ERK pathways. […] However, the level of total FAK protein in ALG-1001 treated animals was elevated at day 14.
(In an ELISA, binding on a coated surface is turned into a signal by an enzyme label.)

In another series the test system is IL1β. The series can be described thus: IL1β expression in LPS stimulated RAW264.7 cells (qPCR). The format is cell-based, murine. To be noted: 24 h pretreatment, LPS 3 h. As for the experimental part:
as §4, §2, §5

Values joined by “and” are separate entries in the source; they are usually repeats but may differ in a detail not shown here. Identical values can stand only once. Non-standard residues stand in square brackets, D forms with d. Residues, ends and D or L forms follow the SMILES beside them. Cya = N[C@@H](CS(=O)(=O)O)C(=O)O

proteinase K, sequence (P06873 106-384): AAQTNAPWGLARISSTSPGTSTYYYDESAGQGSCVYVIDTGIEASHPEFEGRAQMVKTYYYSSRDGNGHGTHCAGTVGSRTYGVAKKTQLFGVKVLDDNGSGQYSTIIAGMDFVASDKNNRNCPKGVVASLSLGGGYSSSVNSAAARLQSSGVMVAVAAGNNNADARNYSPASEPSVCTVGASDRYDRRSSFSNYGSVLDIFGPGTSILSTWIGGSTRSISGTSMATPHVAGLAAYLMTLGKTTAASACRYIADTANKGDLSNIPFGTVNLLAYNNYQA
Protocol for proteinase K: Proteinase K stock solution was purchased from ThermoFisher and used as is. […] The mixture was incubated at 37° C. and at set time points, 100 μL of the mixture was removed and analyzed through HPLC.

Regarding `C[C@@H](O)[C@H](NC(=O)[C@H](CS(=O)(=O)O)NC(=O)CNC(=O)[C@H](CCCNC(=N)N)NC(=O)CN)C(=O)N1CCC[C@H]1C(=O)O` [ALG-1001] (H-GRG[Cya]TP-OH; N-terminus and C-terminus assumed), the “VEGF-A production (qPCR)” value in the series on VEGF-A [1] was “lower VEGF-A production at 14 days only”. Moreover, the “TNFα level (qPCR)” value in the series on TNFα [2] is recorded as “lower TNFα levels across both time points”. Further, in the series with VEGF-A [3], the “VEGF production compared to the control” value is listed as “did not have statistically significant increases”. Also, the “reduction of TNFα expression” value with TNFα [4] turned out to be 20%. On proteinase K, this molecule yielded a metabolised at 0.5 h, 2 mg/mL of approximately 50% and a metabolised at […], 2 mg/mL of approximately 90%. Moreover, the “reduction of CNV formation” value in series [5] (day 7, intraperitoneal 150 μg peptide basis every 4 days) was ~60% and 40%. Further, in series [5] (intravitreal, day 7), the “formation of CNV” value is “significantly inhibited”. Also, in the series on p44/42 ERK (day 7), the “total ERK” value is given as “remained relatively constant”. The “total ERK” value in the series on p44/42 ERK (day 14, vs untreated animals) was “slight reduction”. Also, the “phospho-p44/42 ERK” value with p44/42 ERK (rat, in vivo) is listed as “decrease of p44/42 ERK production”. Besides, in the series on IL1β, the “impact on IL1β production” value was “no impact on IL1β production”.

(Values after patent US20250135012A1, “DENDRIMER CONJUGATES OF SMALL MOLECULE BIOLOGICS FOR INTRACELLULAR DELIVERY” (The Johns Hopkins University, priority 2021, published 2025).)
